Converted amounts (≈) assume the structure as drawn.
What was measured:
[1] = Population PK model parameter estimates (NLME, Monolix) from CHDM201X2101 dataset; type: in vivo, human; conditions: population estimate
Excerpt: (§1) For model building the PK/PD dataset of CHDM201X2101 were used and an NLME estimation (Monolix 4.3.2) performed. The model structure and the parameter estimates are provided below. This provided inputs for R/shiny. The mlxR package were used for simulation of longitudinal data from the MLXTRAN model.
parameter={r, t1, t2, Tk0, ka, V, Cl, PLTz, MMTP, T12P, sPW, alp, lPW, kr1, kr1D, EC50, ke0, cfr, h, Sg, HGD, koutg, gdfZ, kinG}

Colon 26 cells = experiment: Colon 26 Colorectal Cancer (CRC) syngeneic mouse model; type: in vivo
Method: Balb/c mice were implanted with 2×10^5 Colon 26 cells subcutaneously. Mice were treated with HDM201 at 40 mg/kg×3 every 3 h po on Days 10, 17 and 24 post cell implant, and anti-Tim3 antibody (murine cross reactive clone 5D12) at 5 mg/kg ip on days 10, 13, 17, and 20. End-point was defined as tumor volume equal or greater than 1000 mm^3.
The anti-tumor effects of HDM201 as a monotherapy or in combination with an anti-TIM3 antibody were evaluated in the Colon 26 Colorectal Cancer (CRC) syngeneic mouse model.

platelet (PLT) = experiment: Population PK/PD platelet model parameter estimates (NLME, Monolix) from CHDM201X2101 dataset; type: in vivo, human; conditions: population estimate
Excerpt: Based on the population PK/PD data of the clinical study CHDM201X2101, an AML patients platelet model was developed which recognizes that the disease influences the regulation of platelets production. The following graphic elucidates the model.
as §1
EP1=kr1*E^h/(E^h+EC50^h)+kr1D*Cc

hematological tumors = experiment: Clinical study CHDM201X2101, HDM201 single agent; type: in vivo, human
Method: With this regimen, the RD has been determined as 45 mg HDM201 in hematological tumors in the CHDM201X2101 study. […] Proceedings of the American Association for Cancer Research Annual Meeting 2017; 2017 Apr. 1-5; Washington, D.C. Philadelphia (Pa.): AACR; Cancer Res 2017; 77 (13 Suppl): Abstract nr CT154. doi:10.1158/1538-7445.AM2017-CT154).
The starting dose and regimen selection for HDM201 in dose escalation is based on the previous Phase I dose escalation and expansion study of HDM201 as a single-agent in subjects with AML/MDS (CHDM201X2101) in which a dose of 45 mg/day (day 1-7/28-day cycle) was determined to be the RD. In this study, a starting dose and regimen of 20 mg/day HDM201 (day 1-5/28-day cycle) for dose escalation has been selected. The selection of dose and regimen was supported by single agent translational preclinical modeling of tumor bearing rats and population PK/PD modeling of thrombocytopenia and bone marrow blast data from CHDM201X2101 study in AML/MDS subjects. The starting dose corresponds to ˜[…] below the cumulative dose of HDM201 single agent RD (as evaluated in CHDM201X2101 at 45 mg/day (day 1-7/28-day cycle), or 315 mg/cycle). At this dose level, ˜15% of subjects are predicted to achieve preclinical derived average target efficacious concentrations of HDM201 per cycle, with some anticipated clinical activity (bone marrow blast reduction) and limited target myelosuppression.

[2] = Clinical study CPDR001X2105, MBG453 in AML/MDS subjects; type: in vivo, human; conditions: 400 mg Q2W and 800 mg Q4W
Method: (§2) The MBG453 single agent RD has been determined as 800 mg Q4W in solid tumor subjects primarily based on PK and PKPD modeling of target (TIM-3) occupancy. MBG453 at the dose level of 800 mg Q4W was predicted to give sustained target occupancy of 90% in tumor in >90% of subjects. […] MBG453 single agent is also being evaluated in AML/MDS subjects in the CPDR001X2105 study with Q4W and Q2W regimens.
The RD in AML/MDS has not yet been determined, however it is not expected to be different from solid tumors, based on preliminary PK and safety data.

[3] = Clinical study CMBG453X2101, MBG453 single agent in solid tumor subjects; type: in vivo, human; conditions: Q4W, based on PK and PKPD modeling of TIM-3 occupancy
Method: as §2

[4] = Balb/c mice, Colon 26 sc, HDM201 40 mg/kg x3 every 3 h po days 10, 17, 24, anti-Tim3 antibody 5 mg/kg ip days 10, 13, 17, 20
[5] = learning from clinical study CHDM201X2101

Work on COc1ncc(-c2nc3c(n2C(C)C)[C@H](c2ccc(Cl)cc2)N(c2cc(Cl)cn(C)c2=O)C3=O)c(OC)n1 [HDM201, (S)-5-(5-Chloro-1-methyl-2-oxo-1,2-dihydro-pyridin-3-yl)-6-(4-chloro-phenyl)-2-(2,4-dimethoxy-pyrimidin-5-yl)-1-isopropyl-5,6-dihydro-1H-pyrrolo[3,4-d]imidazol-4-one] yielded a pop_Tk0 [1] of 1.314, a pop_Cl ([1]; method=FIXED) of 6.18 and a pop_V ([1]; method=FIXED) of 119. For the same compound, the pop_ka ([1]; method=FIXED) was 0.489, the pop_t1 ([1]; method=FIXED, absorption lag (Tlag=t1)) was 0.69 and the pop_t2 ([1]; method=FIXED, absorption lag (Tlag=t2)) was 0.412. The pop_r ([1]; method=FIXED, fraction for zero-order absorption) was 0.617, the “anti-tumor effects (tumor growth)” value (Colon 26 cells; [4]) was “inhibited tumor growth” and the “complete tumor regressions (CR)” value (Colon 26 cells; [4]) was 1 CR. For the same compound, the “anti-tumor immune memory / resistance to re-challenge” value (Colon 26 cells; mice with CR or long-term survival, Colon 26 cells) was “develop antitumor immunity and are resistant to re-challenge with the same tumor cells”, the EC50 (platelet (PLT); Homo sapiens, drug effect EP1 on platelet production, read-out: pop_EC50) was 0.261 µg/mL (≈ 0.469 µM) and the pop_h (platelet (PLT); method=FIXED, exponent h in EP1) was 2. It also gave a pop_kr1D (platelet (PLT); concentration-proportional term of EP1) of 0.006491, a pop_ke0 (platelet (PLT); effect compartment) of 6.152e-05 and a pop_kr1 (platelet (PLT); maximal term of drug effect EP1) of 2.1374. For the same compound, the “RD (recommended dose)” value (hematological tumors; day 1-7/28-day cycle, single-agent, subjects with AML/MDS) was 45 mg/day, the “hematopoietic recovery on dosing in AML” value (hematological tumors; [5]) was “Delayed hematopoietic recovery” and the “platelet toxicity on dosing in AML” value (hematological tumors; [5]) was “Cumulative platelet toxicity”. The “RD (recommended dose)” value (hematological tumors; once daily day 1 to day 7 of a 28-day cycle, hematological tumors) was 45 mg.
With “MBG453: high-affinity, humanized anti-TIM-3 IgG4 monoclonal antibody which blocks the binding of TIM-3 to phosphatidylserin (PtdSer)” the “tolerability in AML/MDS” value [2] was “well tolerated” and the “single agent RD (recommended dose)” value [3] was 800 mg.

Source: patent US20220281970A1, “Pharmaceutical Combinations” (Novartis AG, priority 2018, published 2022)
